The record followed here is patent US12478628B2, “Germ cell nuclear factor ligands and methods of use thereof” (Saint Louis University, priority 2020, dated 2025).

The test system of experiment [1] is i3 neurons differentiated from induced pluripotent stem cells (iPSCs). Kind of experiment: iPSC differentiation to i3 neurons, morphology. Set-up: neurite outgrowth: dose or concentration left out as unconfirmed. The experiment is classed as cell-based. As to conditions: ligand treatment before and during differentiation. How it is done: iPSC Differentiation to Neurons. For growing neurons from iPSC cells, the method described by Femandopulle were employed (Femandopulle et al., 2018). Briefly, cells were treated with doxycycline to turn on expression of Neurogenin-2 (NGN2), which irreversibly sets these cells on the path of neuronal differentiation. The cells were treated with doxycycline for 3 days (changing media every day), and then re-plate the cells onto new plates coated with PLO. For each time point, 21 samples were prepared (DMSO and ligands 34 and 80 at different concentrations, in triplicate).
An overview of the experiment timeline is shown as well: • Day 0: Plate iPSC on matrigel-coated 12-well plates • Day 2: Treat cells −/+ ligands in iPSC media • Day 3: Refeed cells induction media +Doxycycline −/+ ligands to start neuronal differentiation (Day 0 of differentiation) • Day 4: Refeed cells induction media +Doxycycline −/+ ligands (Day 1 of differentiation) • Day 5: Refeed cells induction media +Doxycycline −/+ ligands (Day 2 of differentiation) • Day 6: Take pictures; Refeed cells neuronal media −/+ ligands (Day 3 of differentiation) • Day 7: Collect cells for RNA/qPCR (Day 4 of differentiation)

Experiment [2] addresses T1, COUP-TF I LBD (Homo sapiens, UniProt P10589).
T1 construct: human COUP-TF I LBD (residues 184-410); hexahistidine tag with 3C protease site; made in house; host or cells: E. coli BL(21) DE3
T1 sequence (P10589 184-410): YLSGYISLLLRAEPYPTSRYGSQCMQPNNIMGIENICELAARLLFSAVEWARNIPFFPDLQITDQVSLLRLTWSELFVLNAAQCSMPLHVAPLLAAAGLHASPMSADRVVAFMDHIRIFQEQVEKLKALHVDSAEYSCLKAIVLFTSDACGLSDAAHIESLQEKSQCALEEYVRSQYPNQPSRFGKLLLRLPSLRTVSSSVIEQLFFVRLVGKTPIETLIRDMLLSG
Kind of experiment: DSF specificity assay, COUP-TF I. The format is binding. How it is done:
Protein Expression and Purification. Human GCNF (NR6A1) LBD (residues 248-480) and mutants F284A/F361A, human LRH-1 (NR5A2) LBD (residues 291-541), human RXRα LBD (residues 223-462), human COUP-TF I LBD (residues 184-410) and human SF-1 LBD (residues 219-461) were subcloned in pET45b(+) plasmid (Novagen) were expressed in E. coli BL(21) DE3 cells in terrific broth with 0.1 mg/mL ampicillin as 3C protease-cleavable hexahistidine-tagged fusion proteins. The bacterial culture was grown at 37° C. to an optical density of 0.8 to 1.0 at 600 nm. Protein expression was induced by adding 1 mM IPTG and was allowed to proceed for 14 h at 22° C. […]
DSF Assay. […] A total of 450 compounds (Life Chemicals) previously selected from a nuclear-receptor-biased library targeting REV-ERB were analyzed. Thermal stability was assessed on a Quantstudio 6 instrument (Biosystems) by ramping the temperature from 25° C. to 95° C. at 0.05° C./s and protein melt shifts were subsequently quantified by Boltzmann-derived melting temperature (Tm) using the Protein Thermal Shift (ThermoFisher) software. […]

Experiment [3] concerns BeWo human choriocarcinoma cells. Kind of experiment: qPCR of GCNF target gene expression in BeWo cells. The format is cell-based. The conditions noted are these: 20 μM, 24 h. How it is done: BeWo cells were cultured in DMEM-F12 medium (Gibco) with 10% FBS (Gembio) and plated at 75,000 cells per well in 12-well plates (Corning). 24-hours after plating, cells were treated with either DMSO, ligand 34 or ligand 80 (20 μM) at 4 wells/group. RNA was isolated 24-hours after drug treatment and cDNA was synthesized for the QPCR assays using Bio-Rad iScript cDNA synthesis kit per manufacturer's protocol. Expression was analyzed by QPCR using a custom array plate (Bio-Rad PrimePCR) per manufacturer's protocol; n=4 was used for cell-based assays and plotted as mean±SEM.

Experiment [4] addresses T2, GCNF LBD with SMRT ID2 corepressor peptide (Homo sapiens, UniProt Q15406).
T2 construct: Human GCNF (NR6A1) LBD (residues 248-480); made in house; host or cells: E. coli BL(21) DE3
Kind of experiment: FP ligand titration assay, SMRT ID2 peptide recruitment. The experiment is classed as biochemical. The conditions noted are these: 20 μM GCNF LBD. On the procedure: FP Assay. Fluorescence polarization (FP) assays were performed in triplicate on a 384-well Corning 3820 black opaque plate using a Biotek Synergy Neo2 HTS multimode microplate reader at excitation and emission wavelengths of 485 nm and 538 nm, respectively. Data were analyzed and plotted using GraphPad Prism as mean±SEM.
For the FP ligand titration assay, the aforementioned N-terminus fluorescein-tagged corepressor peptides were diluted to 500 nM from a 100 μM DMSO stock in the presence of 20 μM GCNF LBD and ligand concentration points 30, 20, 13, 9, 6, 4, 2.6, 1.7 and 0 μM in assay buffer containing 50 mM HEPES (pH 7.5), 50 mM KCl, 5 mM TCEP, 0.5 mM EDTA and 0.005% Tween20. The relative polarization was plotted against log of ligand concentration (μM) and the half maximal effective concentration (EC50) values were derived via sigmoidal fit.

T2 sequence (Q15406 248-480): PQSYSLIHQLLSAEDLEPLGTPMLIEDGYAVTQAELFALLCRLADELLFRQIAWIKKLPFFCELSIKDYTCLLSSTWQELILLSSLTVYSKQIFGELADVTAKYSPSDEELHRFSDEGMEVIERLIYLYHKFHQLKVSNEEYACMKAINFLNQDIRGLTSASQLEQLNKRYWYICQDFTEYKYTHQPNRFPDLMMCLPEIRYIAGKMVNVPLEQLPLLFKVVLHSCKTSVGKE
T2 sequence (Q9Y618 2332-2354 partner limits assumed): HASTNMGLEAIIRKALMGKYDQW

Take `Cc1ccc(-n2ncc3c(N4CCOCC4)nc(NCc4ccco4)nc32)cc1` [Ligand 34, N-[(furan-2-yl)methyl]-1-(4-methylphenyl)-4-(morpholin-4-yl)-1H-pyrazolo[3,4-d]pyrimidin-6-amine]: in experiment [1], the “area of cell bodies” value is “remain unchanged”, the neurite branching result is recorded as “more extensive branching” and the neurite outgrowth result is given as “significant increase of neurite outgrowth”. Moreover, the “change of Tm of COUP-TF I LBD” value in experiment [2] was “did not significantly change”. Further, in experiment [3], the GCNF gene expression result was “not affected”, the “NR5A1 (SF-1) expression” value is on record as “significantly promoted the expression”, the “NR5A2 (LRH-1) expression” value is on record as “significantly promoted the expression” and the Nanog expression result is reported as “significantly promoted the expression”. Further, in experiment [3], the Oct4 expression result is “significantly promoted the expression”, the “carnitine palmitoyltransferase 1a (CPT1a) expression” value is “significantly increased”, the “diglyceride acyltransferase-1 (DGAT1) expression” value is “significantly promoted the expression” and the “diglyceride acyltransferase-2 (DGAT2) expression” value is “no significant effect”. In experiment [3], the “fatty acid synthase (FASN) expression” value is reported as “no significant effect” and the “phosphoenolpyruvate carboxykinase (PEPCK) expression” value is listed as “upregulated”. Further, the “effect on recruitment of SMRT ID2 to GCNF” value in experiment [4] is “increased the recruitment”.
Turning to `O=C(Cn1cc(S(=O)(=O)c2ccccc2)c2ccccc21)N1CCc2ccccc21` [Ligand 80, 2-[3-(benzenesulfonyl)-1H-indol-1-yl]-1-(2,3-dihydro-1H-indol-1-yl)ethan-1-one], in experiment [1], the “area of cell bodies” value was “remain unchanged”, the neurite branching entry is “more extensive branching” and the neurite outgrowth entry is reported as “significant increase of neurite outgrowth”. Also, the “change of Tm of COUP-TF I LBD” value in experiment [2] is on record as “did not significantly change”. In addition, in experiment [3], the GCNF gene expression entry is listed as “not affected”; the “NR5A1 (SF-1) expression” value is “but not 80, significantly promoted the expression”; the Oct4 expression entry is on record as “but not 80, significantly promoted the expression”; the “carnitine palmitoyltransferase 1a (CPT1a) expression” value is listed as “no effect”. In addition, in experiment [3], the “diglyceride acyltransferase-1 (DGAT1) expression” value is on record as “but not 80, significantly promoted the expression”; the “diglyceride acyltransferase-2 (DGAT2) expression” value is on record as “no significant effect”; the “fatty acid synthase (FASN) expression” value was “no significant effect”; the “phosphoenolpyruvate carboxykinase (PEPCK) expression” value is reported as “upregulated”. Moreover, the “effect on recruitment of SMRT ID2 to GCNF” value in experiment [4] is recorded as “but not ligand 80, increased the recruitment of SMRT ID2”.
